Results on 12 molecules are retold here after US5079260A, “Method for treating inflammation and compounds and compositions suitable for use therein” (Nova Pharmaceutical Corporation, priority 1990, dated 1992).

Each structure is given as a SMILES string. Where a name gives a salt, the structure may show the parent alone.

The subject of assay [1] is Ear Edema Caused by Arachidonic Acid. Briefly: Inhibition of Ear Edema Caused by Arachidonic Acid (II), Table 8. It is filed as in vivo, CF-1 mice. The conditions noted are these: i.p., sixty minutes. On the procedure: Inhibition of Ear Edema Caused by Arachidonic Acid (II)
CF-1 mice, 25-30 g body weight, six animals per group, were used. The requisite amount of the test compound was dissolved is dimethyl sulfoxide or 0.5% methylcellulose and 100 μL of the solution was injected intraperitoneally 30 minutes prior to the administration of 100 mg/kg of arachidponic acid. A solution of this irritant, b 100 mg/mL in ethanol, was applied to the surface of the ear, 5 μL to the upper surface and 5 μL to the lower surface. After sixty minutes, the thickness of the ear was measured to 0.01 mm by a micrometer with the loose drag positioned at the lateral-most edge of the mid-point of the pinna. Data were calculated as the percent inhibityion by the test compound of increased ear thickness compared to control animals recieveing only the irritant.

Assay [2] relates to Ear Edema Caused by Oxazolone. Briefly: Inhibition of Ear Edema Caused by Oxazolone (II), Table 10. The conditions noted are these: i.p., 24 h. It is filed as in vivo, CF-1 mice. On the procedure: Inhibition of Ear Edema Caused by Oxazolone (II)
CF-1 mice, 25-30 g body weight, five to six animals per group were used. The mice were sensitized to the irritant two weeks prior to the test by dribbling 100 μL of a 3% solution of oxazolone in acetone onto the abdominal skin of the animal. Test compounds were administered intraperitoneally as follows. […] The irritant, 3% oxazolone in acetone, was added to the surface of the ear, 5 μL added to the upper surface and 5 μL added to the lower surface. After twenty four hours, the thickness of the ear was measured to 0.01 mm by a micrometer with loose drag, positioned at the lateral-most edge of the mid-point of the pinna. Data were calculated as the inhibition of increased ear thickness compared to control animals' receiving only the irritant.

The test system of assay [3] is Reverse Passive Artus Reaction. Briefly: Reverse Passive Artus Reaction (II), Table 11. The conditions noted are these: inhibition of blueing, i.p. It counts as in vivo, Male CD rats. Here is the method: Reverse Passive Artus Reaction (II) Male CD rats weighing between 200 and 250 g were used. […] The animals were anesthetized inhalationally with isoflurane and then injected through the penile vein with 1 mL of a solution of 2.5 mg of Evan's blue dye and 5.0 mg of human serum albumin in 1 mL of saline. This treatment was followed immediately by intracutaneous injections of 0.03 mL of anti-human albumin diluted to contain 3.65 mg of antibody at 3 sites along the midline back. Anesthesia was terminated and after three hours, the animals were sacrificed. The skin was removed and the blue stained areas cut out. The skin patches were soaked overnight in stoppered tubes containing 1 mL of 1 N potassium hydroxide at 37° C. Then 9 mL of a mixture of five parts of a 0.6 N phosphoric acid and thirteen parts of acetone were added to the tubes. The tube contents were agitated and centrifuged, and the absorbance measured at 620 nm. The data were calculated as inhibition of blueing by test compound compared to control animals receiving only antigen and antibody.

The subject of assay [4] is Ear Edema Caused By Tetradecanoylphorbol Acetate. Nature of the assay: Inhibition of Ear Edema Caused by Tetradecanoylphorbol Acetate (II), Table 7. It is filed as in vivo, CF-1 Mice. The conditions noted are these: i.p., 3 h. Here is the method: Inhibition of Ear Edema Caused by Tetradecanoylphorbol Acetate (II)
CF-1 Mice, 25-30 g body weight, six animals per group were used. Test compounds were administered intraperitoneally or topically as follows. For intraperitoneal administration, the test compound was dissolved in dimethyl sulfoxide or 0.5% methylcellulose and 100 microliters was injected 30 minutes prior to irritant (100 mg/kg, i.p.). […] A solution of the irritant, tetradecanoylphorbol acetate, 200 μg/mL, was added to the surface of the ear, 5 μL to the upper surface and 5 μL to the lower surface. After three hours, the thickness of the ear was measured to 0.01 mm by a micrometer with loose drag, positioned at the lateral-most edge of the mid-point of the pinna. Data were calculated as the inhibition of increased ear thickness compared to control animals receiving only the irritant.

The test system of assay [5] is Ear Edema Caused by Xylene. Briefly: Inhibition of Ear Edema Caused by Xylene (II), Table 9. It counts as in vivo, CF-1 mice. As to conditions: i.p., 2 h. On the procedure:
Inhibition of Ear Edema Caused by Xylene (II)
CF-1 mice, 25-30 g body weight, six animals per group, were used. The requisite amount of the test compound was dissolved is dimethyl sulfoxide or 0.5% methylcellulose and 100 μL of the solution was injected intraperitoneally 30 minutes prior to the administration the irritant. The irritant xylene was applied to the surface of the ear, 20 μL to the upper surface and 20 μL to the lower surface, After two hours, the thickness of the ear was measured to 0.01 mm by a micrometer with the loose drag positioned at the lateral-most edge of the mid-point of the pinna. Data were calculated as the percent inhibition by the test compound of increased ear thickness compared to control animals receiving only the irritant.

`COc1ccc2c(c1)c(CC(=O)O)c(C)n2C(=O)c1ccc(Cl)cc1` [Indomethacin, reference compound]: the “% Inhibition Intraperitoneal” value in assay [1] (100 mg/kg) was 1%; in assay [2] (1 mg/kg), 4%; in assay [2] (3 mg/kg) it was 35%; in assay [3] (1 mg/kg) it was 5%; in assay [3] (3 mg/kg), 26%; in assay [3] (10 mg/kg) it was 27%.

For `COC(=O)[C@H](CC(C)C)NC(=O)OCC1c2ccccc2-c2ccccc21` [NPC 15326, N-[(9H-Fluoren-9-ylmethoxy)carbonyl]-L-leucine methyl ester], in assay [3] (100 mg/kg), the “% Inhibition Intraperitoneal” value amounted to 19%.

Consider `CC(C)CC(CO)NC(=O)OCC1c2ccccc2-c2ccccc21` (stereo not drawn) [NPC 15427, 2-{N-[(9H-Fluoren-9-ylmethoxy)carbonyl]amino}-4-methylpentanol], for which the “% Inhibition Intraperitoneal” value in assay [3] (100 mg/kg) worked out at 14%.

For the molecule `CC(C)C[C@H](NC(=O)OCC1c2ccccc2-c2ccccc21)C(=O)OCC(O)CO` (stereo partly drawn) [NPC 15430], the “% Inhibition Intraperitoneal” value in assay [3] (100 mg/kg) was found to be 48%.

In the case of `CC(C)C[C@H](NC(=O)CCC1c2ccccc2-c2ccccc21)C(=O)O` [NPC 15476, N-[3-(9H-Fluoren-9-yl)propionyl]-L-leucine], the “% Inhibition Intraperitoneal” value in assay [4] (100 mg/kg) was found to be 64%; in assay [2] (10 mg/kg), 0%; in assay [2] (30 mg/kg), 5%; in assay [2] (100 mg/kg), 43%; in assay [3] (100 mg/kg), 56%.

Broadly, the % Inhibition is the percentage by which the read-out fell short of the control. The low end stands for a weak effect, the high end for a strong effect. As for `Cc1ccc2c(c1)C(COC(=O)N[C@@H](CC(C)C)C(=O)O)c1ccccc1-2` (stereo partly drawn) [NPC 15477, N-{[9H-(2-Methylfluoren-9-yl)methoxy]carbonyl}-L-leucine], the “% Inhibition Intraperitoneal” value in assay [4] (10 mg/kg) is 35%; in assay [4] (30 mg/kg) it was 37%; in assay [4] (100 mg/kg), 72%; in assay [1] (10 mg/kg) it was 10%; in assay [1] (30 mg/kg), 58%; in assay [1] (100 mg/kg) it was 82%. The “% Inhibition Intraperitoneal” value in assay [2] (10 mg/kg) amounted to 3%; in assay [2] (30 mg/kg) it was 14%; in assay [2] (100 mg/kg), 43%; in assay [3] (100 mg/kg), 53%. Besides, the “% Inhibition” value turned out to be 41% in assay [5] (10 mg/kg), 53% in assay [5] (30 mg/kg) and 69% in assay [5] (100 mg/kg).

For the molecule `COc1ccc2c(c1)C(COC(=O)N[C@@H](CC(C)C)C(=O)O)c1ccccc1-2` (stereo partly drawn) [NPC 15489, N-[(2-Methoxyfluoren-9-ylmethoxy)carbonyl]-L-leucine], in assay [3] (100 mg/kg), the “% Inhibition Intraperitoneal” value was 64%.

With `CC(C)C[C@H](NC(=O)OCCC1c2ccccc2-c2ccccc21)C(=O)O` [NPC 15521, N-[(9H-Fluoren-9-ylethoxy)carbonyl]-L-leucine], the “% Inhibition Intraperitoneal” value was determined as 33% in assay [4] (10 mg/kg); 37% in assay [4] (30 mg/kg); 77% in assay [4] (100 mg/kg); 34% in assay [1] (10 mg/kg); 41% in assay [1] (30 mg/kg); 69% in assay [1] (100 mg/kg). The “% Inhibition Intraperitoneal” value is recorded as 39% in assay [2] (10 mg/kg), 45% in assay [2] (30 mg/kg), 74% in assay [2] (100 mg/kg) and 63% in assay [3] (100 mg/kg). Further, the “% Inhibition” value in assay [5] (10 mg/kg) is recorded as 20%; in assay [5] (30 mg/kg) it was 15%; in assay [5] (100 mg/kg), 57%.

Consider `Cc1cccc2c1-c1c(C)cccc1C2COC(=O)N[C@@H](CC(C)C)C(=O)O` [NPC 15670], for which the “% Inhibition Intraperitoneal” value in assay [4] (10 mg/kg) is 27%; in assay [4] (30 mg/kg) it was 117%; in assay [4] (100 mg/kg), 150%; in assay [2] (10 mg/kg) it was -36%; in assay [2] (30 mg/kg) it was 43%; in assay [3] (100 mg/kg) it was 82%. The “% Inhibition” value in assay [5] (10 mg/kg) is given as 78%; in assay [5] (30 mg/kg), 46%; in assay [5] (100 mg/kg), 50%.

For the molecule `CC(C)C[C@H](NC(=O)CCC1c2ccccc2-c2ccccc21)C(=O)O` [NPC 15672, N-{9H-[3-Fluorenyl-9)propionyl]}-L-leucine, sodium salt], the “% Inhibition Intraperitoneal” value in assay [4] (10 mg/kg) worked out at 54%; in assay [4] (30 mg/kg) it was 21%; in assay [4] (100 mg/kg, sodium salt), 66%; in assay [2] (10 mg/kg, sodium salt), 11%; in assay [2] (30 mg/kg, sodium salt), 19%; in assay [2] (100 mg/kg, sodium salt), 35%. Also, the “% Inhibition Intraperitoneal” value in assay [3] (100 mg/kg, sodium salt) is listed as 34%.

For the molecule `CCCC[C@H](NC(=O)OCC1c2ccccc2-c2cccc(C)c21)C(=O)O` (stereo partly drawn) [NPC 15951, N-{[9H-(1-Methylfluoren-9-yl)methoxy]carbonyl}-L-norleucine], the “% Inhibition Intraperitoneal” value turned out to be 41% in assay [4] (10 mg/kg); 39% in assay [4] (30 mg/kg); 70% in assay [4] (100 mg/kg); 11% in assay [1] (10 mg/kg); 18% in assay [1] (30 mg/kg); 56% in assay [1] (100 mg/kg). Also, the “% Inhibition Intraperitoneal” value in assay [2] (10 mg/kg) came to 33%; in assay [2] (30 mg/kg), 23%; in assay [2] (100 mg/kg), 49%. Moreover, the results for the “% Inhibition” value in assay [5] (10 mg/kg), in assay [5] (30 mg/kg) and in assay [5] (100 mg/kg) were 40%, 62% and 62%, respectively.

Take `Cc1cccc2c1C(COC(=O)N[C@H](C(=O)O)C(C)(C)C)c1ccccc1-2` (stereo partly drawn) [NPC 15952, N-{[9H-(1-Methylfluoren-9-yl)methoxy]carbonyl}-L-tert-leucine]: the “% Inhibition Intraperitoneal” value was determined as 27% in assay [4] (10 mg/kg); 75% in assay [4] (30 mg/kg); 67% in assay [4] (100 mg/kg); 43% in assay [1] (10 mg/kg); 47% in assay [1] (30 mg/kg); 50% in assay [1] (100 mg/kg). Also, the results for the “% Inhibition Intraperitoneal” value in assay [2] (10 mg/kg), in assay [2] (30 mg/kg) and in assay [2] (100 mg/kg) were 21%, 24% and 72%, respectively. Besides, the “% Inhibition” value in assay [5] (10 mg/kg) is listed as 29%; in assay [5] (30 mg/kg) it was 39%; in assay [5] (100 mg/kg) it was 43%.
